Reference: US9963442B2, “Pyridones as herbicides” (E I DU PONT DE NEMOURS AND COMPANY, priority 2014, dated 2018)

Assays:
[1] = system: Italian ryegrass (Lolium multiflorum); assay: Test A postemergence application; type: in vivo; conditions: approx. 10 days
In short: (§1)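 Visual injury score, 0–100 scale (100 = complete control), versus untreated plants after ~10 days greenhouse. Pre: directed soil spray on seeded loam/sand. Post: 2–10 cm plants, 1–2 leaves. Solvent/surfactant formulation.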

[2] = system: barnyardgrass (Echinochloa crus-galli); assay: Test A postemergence application; type: in vivo; conditions: approx. 10 days
In short: as §1

[3] = system: blackgrass (Alopecurus myosuroides); assay: Test A postemergence application; type: in vivo; conditions: approx. 10 days
In short: as §1

corn (Zea mays) [4] = assay: Test A postemergence application; type: in vivo; conditions: approx. 10 days
In short: as §1

[5] = system: galium (catchweed bedstraw, Galium aparine); assay: Test A postemergence application; type: in vivo; conditions: approx. 10 days
In short: as §1

[6] = system: giant foxtail (Setaria faberii); assay: Test A postemergence application; type: in vivo; conditions: approx. 10 days
In short: as §1

kochia (Kochia scoparia) = assay: Test A postemergence application; type: in vivo; conditions: approx. 10 days
In short: as §1

[7] = system: pigweed (Amaranthus retroflexus); assay: Test A postemergence application; type: in vivo; conditions: approx. 10 days
In short: as §1

[8] = system: ragweed (common ragweed, Ambrosia elatior); assay: Test A postemergence application; type: in vivo; conditions: approx. 10 days
In short: as §1

[9] = system: wheat (Triticum aestivum); assay: Test A postemergence application; type: in vivo; conditions: approx. 10 days
In short: as §1

[10] = system: barnyardgrass (Echinochloa crus-galli); assay: Test C postemergence; type: in vivo; conditions: scale 0 to 100, 0 is no effect, 100 is complete control
In short: (§2)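 Visual rating on a 0–100 scale (100 = complete control) against untreated controls, 13–15 days after treatment in the greenhouse. Test chemical was formulated in a non-phytotoxic solvent with surfactant, applied to soil (loam/sand) at planting or to foliage of 1- to 4-leaf plants.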

[11] = system: blackgrass (Alopecurus myosuroides); assay: Test C postemergence; type: in vivo; conditions: scale 0 to 100, 0 is no effect, 100 is complete control
In short: as §2

[12] = system: chickweed (common chickweed, Stellaria media); assay: Test C postemergence; type: in vivo; conditions: scale 0 to 100, 0 is no effect, 100 is complete control
In short: as §2

corn (Zea mays) [13] = assay: Test C postemergence; type: in vivo; conditions: scale 0 to 100, 0 is no effect, 100 is complete control
In short: as §2

[14] = system: morningglory (Ipomoea coccinea); assay: Test C postemergence; type: in vivo; conditions: scale 0 to 100, 0 is no effect, 100 is complete control
In short: as §2

[15] = system: oilseed rape (Brassica napus); assay: Test C postemergence; type: in vivo; conditions: scale 0 to 100, 0 is no effect, 100 is complete control
In short: as §2

[16] = system: pigweed (Amaranthus retroflexus); assay: Test C postemergence; type: in vivo; conditions: scale 0 to 100, 0 is no effect, 100 is complete control
In short: as §2

[17] = system: yellow nutsedge (Cyperus esculentus); assay: Test C postemergence; type: in vivo; conditions: scale 0 to 100, 0 is no effect, 100 is complete control
In short: as §2

Compound: O=c1cccc(Oc2ncc(Cl)cn2)n1-c1ccc(Cl)cc1 [Compound 1, 1-(4-chlorophenyl)-6-[(5-chloro-2-pyrimidinyl)oxy]-2(1H)-pyridinone]
- Plant response rating (0 to 100 scale, 0 no effect, 100 complete control), Ryegrass, Italian ([1]; 125 g ai/ha): 0
- Plant response rating (0 to 100 scale, 0 no effect, 100 complete control), Ryegrass, Italian ([1]; 500 g ai/ha): 70
- Plant response rating (0 to 100 scale, 0 no effect, 100 complete control), Barnyardgrass ([2]; 125 g ai/ha): 20
- Plant response rating (0 to 100 scale, 0 no effect, 100 complete control), Barnyardgrass ([2]; 500 g ai/ha): 100
- Plant response rating (0 to 100 scale, 0 no effect, 100 complete control), Blackgrass ([3]; 125 g ai/ha): 20
- Plant response rating (0 to 100 scale, 0 no effect, 100 complete control), Blackgrass ([3]; 500 g ai/ha): 90
- Plant response rating (0 to 100 scale, 0 no effect, 100 complete control), Corn (corn (Zea mays) [4]; 125 g ai/ha): 30
- Plant response rating (0 to 100 scale, 0 no effect, 100 complete control), Corn (corn (Zea mays) [4]; 500 g ai/ha): 30
- Plant response rating (0 to 100 scale, 0 no effect, 100 complete control), Galium ([5]; 125 g ai/ha): 50
- Plant response rating (0 to 100 scale, 0 no effect, 100 complete control), Galium ([5]; 500 g ai/ha): 100
- Plant response rating (0 to 100 scale, 0 no effect, 100 complete control), Foxtail, Giant ([6]; 125 g ai/ha): 70
- Plant response rating (0 to 100 scale, 0 no effect, 100 complete control), Foxtail, Giant ([6]; 500 g ai/ha): 100
- Plant response rating (0 to 100 scale, 0 no effect, 100 complete control), Kochia (kochia (Kochia scoparia); 125 g ai/ha): 90
- Plant response rating (0 to 100 scale, 0 no effect, 100 complete control), Kochia (kochia (Kochia scoparia); 500 g ai/ha): 100
- Plant response rating (0 to 100 scale, 0 no effect, 100 complete control), Pigweed ([7]; 125 g ai/ha): 100
- Plant response rating (0 to 100 scale, 0 no effect, 100 complete control), Pigweed ([7]; 500 g ai/ha): 100
- Plant response rating (0 to 100 scale, 0 no effect, 100 complete control), Ragweed ([8]; 125 g ai/ha): 20
- Plant response rating (0 to 100 scale, 0 no effect, 100 complete control), Ragweed ([8]; 500 g ai/ha): 20
- Plant response rating (0 to 100 scale, 0 no effect, 100 complete control), Wheat ([9]; 125 g ai/ha): 30
- Plant response rating (0 to 100 scale, 0 no effect, 100 complete control), Wheat ([9]; 500 g ai/ha): 40
- Plant response rating, Barnyardgrass ([10]; 16 g ai/ha): 5
- Plant response rating, Barnyardgrass ([10]; 31 g ai/ha): 5
- Plant response rating, Barnyardgrass ([10]; 62 g ai/ha): 10
- Plant response rating, Barnyardgrass ([10]; 125 g ai/ha): 10
- Plant response rating, Blackgrass ([11]; 16 g ai/ha): 5
- Plant response rating, Blackgrass ([11]; 31 g ai/ha): 5
- Plant response rating, Blackgrass ([11]; 62 g ai/ha): 5
- Plant response rating, Blackgrass ([11]; 125 g ai/ha): 5
- Plant response rating, Chickweed ([12]; 16 g ai/ha): 10
- Plant response rating, Chickweed ([12]; 31 g ai/ha): 10
- Plant response rating, Chickweed ([12]; 62 g ai/ha): 50
- Plant response rating, Chickweed ([12]; 125 g ai/ha): 65
- Plant response rating, Corn (corn (Zea mays) [13]; 16 g ai/ha): 5
- Plant response rating, Corn (corn (Zea mays) [13]; 31 g ai/ha): 5
- Plant response rating, Corn (corn (Zea mays) [13]; 62 g ai/ha): 10
- Plant response rating, Corn (corn (Zea mays) [13]; 125 g ai/ha): 10
- Plant response rating, Morningglory ([14]; 16 g ai/ha): 10
- Plant response rating, Morningglory ([14]; 31 g ai/ha): 40
- Plant response rating, Morningglory ([14]; 62 g ai/ha): 40
- Plant response rating, Morningglory ([14]; 125 g ai/ha): 60
- Plant response rating, Oilseed Rape ([15]; 16 g ai/ha): 10
- Plant response rating, Oilseed Rape ([15]; 31 g ai/ha): 30
- Plant response rating, Oilseed Rape ([15]; 62 g ai/ha): 70
- Plant response rating, Oilseed Rape ([15]; 125 g ai/ha): 80
- Plant response rating, Pigweed ([16]; 16 g ai/ha): 35
- Plant response rating, Pigweed ([16]; 31 g ai/ha): 95
- Plant response rating, Pigweed ([16]; 62 g ai/ha): 60
- Plant response rating, Pigweed ([16]; 125 g ai/ha): 80
- Plant response rating, Nutsedge, Yellow ([17]; 16 g ai/ha): 5
- Plant response rating, Nutsedge, Yellow ([17]; 31 g ai/ha): 5
- Plant response rating, Nutsedge, Yellow ([17]; 62 g ai/ha): 5
- Plant response rating, Nutsedge, Yellow ([17]; 125 g ai/ha): 10
- melting point: 72 to 74 °C
